Laboratory results as given in US6423869B1, “Polyol-amino acid compounds having anti-helicobacter pylori activity” (Takeda Chemical Industries, Inc., priority 1997, dated 2002).
≈ marks a conversion by molar mass, not a printed value.

Legend:
[1] = test system: gram-negative bacteria; settings: cited from earlier work
[2] = test system: Helicobacter pylori TN2GF4; assay: Gastric infection in mongolian gerbils, repetitive administration; format: in vivo
Experimental: Five-week-old MON/Jms/Gbs mongolian gerbils were inoculated intragastrically with 10^7.58 CFU of Helicobacter pylori TN2GF4. Four weeks after infection, a compound of the Example 47, suspended in 0.5% methyl cellulose, was administered orally at a dose of 30 mg/kg twice daily for 2 days. The animals were killed on the day after the final treatment. Stomachs were removed and homogenized with 3 ml of brucella broth, and the bacterial count in the homogenates was determined by serial dilution and titration on modified Skirrow's plates. The plates were incubated at 37° C. for 4 days in a microaerobic atmosphere prior to counting. No detectable Helicobacter pylori in the stomach on the day after final treatment was defined as clearance. Effect of repetitive administration of a compound of the Example 47 against gastric infection caused by H. pylori TN2GF4 in MON/JmsIGbs mongolian gerbils

[3] = test system: Helicobacter pylori (NCTC 11637); assay: In vitro antibacterial test, agar dilution method (MIC); format: cell-based; settings: NCTC11637, 96 h, 7% horse blood-Brucella agar, 37° C., 4 days, read-out: MIC (minimal inhibitory concentration)
[4] = test system: Helicobacter pylori TN2F4; assay: In vivo antibacterial test in infected mice; settings: mice (Crj: ICR), 50 mg/kg orally twice daily for 2 days, cleared/total (%), hydrochloride
Experimental: In vivo Antibacterial Test
Mice (Crj: ICR, male, aged 5 weeks) were deprived of food for 20 hours and 6.17×10^7 CFU/mouse of Helicobacter pylori TN2F4 was inoculated into the stomach. Starting 11 days after infection, 50 mg/kg of the test compound suspended in 0.5% methyl cellulose/water was adminstered orally twice. daily, in the morning and evening, for 2 consecutive days. On the day following the last dose, the stomach was isolated from the infected mouse and homogenized and a 10-fold dilution series of the homogenate was inoculated on activated charcoal-modified Skirrow medium. Cultivation was carried out microaerobically at 37° C. for 4 days and the eradication rate was determined according to growth of the bacteria.
The number of bacteria was expressed in mean±standard error and the statistical analysis was made in comparison with the control group by the Dunnett method.

[5] = 30 mg/kg twice daily for 2 days

NCC1OC(OC2C(N)CC(NC(=O)C(O)C(O)C(O)C(N)CO)C(O)C2OC2OC(CO)C(O)C2O)C(N)C(O)C1O (stereo not shown)
activity against gram-negative bacteria [1]: active against gram-negative bacteria

C=CC[C@H](N)C(=O)N[C@@H](CO)[C@@H](O)[C@@H](O)[C@H](O)C(=O)N[C@@H](CC(=O)O)c1ccccc1 [Example 47, (S)-3-[(2S,3R,4R,5S)-5-((S)-2-amino-4-pentenoyl)amino-2,3,4,6-tetrahydroxyhexanoyl]amino-3-phenylpropionic acid]
clearance attained (gerbils cleared out of total) [2, 5]: 2 out of 4 | number of infecting organism [2, 5]: decreased the number of infecting organism | Bacterial recovery Log CFU/gastric wall Mean ± SE ([2]; MON/Jms/Gbs mongolian gerbils, 30 mg/kg orally twice daily for 2 days): 2.23 ± 0.44 Log CFU/gastric wall

CC(C)C[C@H](NC(=O)[C@@H](NC(=O)[C@@H](N)C(C)C)C(C)C)C(=O)N[C@@H](CO)[C@@H](O)[C@@H](O)[C@H](O)C(=O)N[C@@H](CC(=O)O)c1ccccc1 [HC-70I, (S)-3-[(2S,3R,4R,5S)-2,3,4,6-tetrahydroxy-5-(L-valyl-L-valyl-L-leucyl)aminohexanoyl]amino-3-phenylpropionic acid]
MIC [3]: 0.025 µg/mL (≈ 0.0382 µM)

CC(C)C[C@H](NC(=O)[C@@H](N)C(C)C)C(=O)N[C@@H](CO)[C@@H](O)[C@@H](O)[C@H](O)C(=O)N[C@@H](CC(=O)O)c1ccccc1 [HC-70II, (S)-3-[(2S,3R,4R,5S)-2,3,4,6-tetrahydroxy-5-(L-valyl-L-leucyl)aminohexanoyl]amino-3-phenylpropionic acid]
MIC [3]: 0.025 µg/mL (≈ 0.0451 µM)

CC(C)C[C@H](NC(=O)[C@@H](N)C(C)C)C(=O)N[C@@H](CO)[C@@H](O)[C@@H](O)[C@H](O)C(=O)N[C@@H](CC(=O)O)c1ccccc1.Cl [HC-70II.HCl, (S)-3-[(2S,3R,4R,5S)-2,3,4,6-tetrahydroxy-5-(L-valyl-L-leucyl)aminohexanoyl]amino-3-phenylpropionate hydrochloride]
Clearance rate (%) [4]: 100%
